Source: patent publication US8835392B2, “Mimetic peptides and the use thereof in the form of 20S, 26S and immunoproteasome inhibitors” (Technische Universität, priority 2005, dated 2014)
Entries after “also recorded” stand apart in the source; their conditions may differ. Where a SMILES comes first, the peptide text is derived from it. [ ]: non-standard residue; d: D form. The star is where a group is joined. Leu(ol) = CC(C)C[C@H](N)CO; Cbz = O=C(OCc1ccccc1)*; Boc = CC(C)(C)OC(=O)*; OBn = c1ccc(CO*)cc1; OtBu = CC(C)(C)O*; CH2Cl = ClC*

Key:
[1] = biological target: T1, 20S proteasome β5 chymotrypsin-like activity (Suc-LLVY-AMC) (Homo sapiens, UniProt P20618+P28074); assay: Protease assay, chymotrypsin-like activity of isolated 20S proteasomes (LLVY substrate); format: biochemical; conditions: isolated 20S proteasome; LLVY-MCA 50 μM; 15 min pre-incubation; read-out: IC50 β5 Chymotrypsin-like (Y)
T1 construct: Proteasomes were isolated from red blood cells; from tissue; host or cells: red blood cells
Procedure: (§1) Proteasomes were isolated from red blood cells. Cells were lysed with DTT (1 mM), and the stroma-free supernatant was loaded on DEAE-sepharose (Toyopearls). Proteasome was eluted with an NaCl-gradient in TEAD (20 mM TrisCl pH 7.4, 1 mM EDTA, 1 mM azide, 1 mM DTT) of 100 to 300 mM NaCl. Proteasome was concentrated using ammonium sulfate-precipitation (between 40 and 70% saturation) and was separated in a 10-40% sucrose-gradient through centrifugation at 40.000 rpm for 16 hours (SW40; L7, Beckman & Coulter). Finally, the proteasomes were purified on a MonoQ-column and eluted with an NaCl-gradient at about 280 mM NaCl. The fractions containing purified proteasome were dialysed against 50 mM NaCl in TEAD and stored on ice. The purity was determined using SDS-PAGE.
(§2) Suc-LLVY-AMC, Z-VGR-AMC and LLE-AMC (BACHEM, Calbiochem) was used, in order to determine the chymotrypsin-like, trypsin-like or caspase-like (post-acidic)-activities of the proteasome. Substrate was incubated with proteasome at 37° C. in assay-buffer (20 mM Tris/Cl, pH 7.2, 1 mM EDTA, 1 mM DTT) for one hour. 100 ng proteasome was pre-incubated with 0.01-10 μM of the inhibitor for […]. The reaction was started by the addition of substrate (50 μM). The AMC as released was detected using fluorescence emission at 460 nm (excitation at 390 nm) using a TECAN-fluorimeter. The activity was calculated in fluorescence-units. The inhibition is depicted by IC50-values.
The chymotrypsin-like (Suc-LLVY-AMC), the trypsin-like (Bz-VGR-AMC), and the caspase-like (Z-LLE-AMC)-activities of 20S proteasomes were determined following incubation for one hour at 37° C.
(§3) The IC50-values form the inhibition of the proteasome were calculated at increasing concentrations of the inhibitor. The samples were pre-incubated for 15 min in ice. The assay was started through the addition of 50 μM of one of the following fluorogenic peptide substrates:
(§4) The release of MCA was determined at 460 nm emission (excitation 390 nm). The IC50-values as calculated for MG132 served as controls.

[2] = biological target: T2, 20S proteasome β2 trypsin-like activity (VGR-MCA) (Homo sapiens, UniProt P49720+Q99436); assay: Protease assay, trypsin-like activity of isolated 20S proteasomes; format: biochemical; conditions: isolated 20S proteasome; VGR-MCA 50 μM; 15 min pre-incubation; read-out: IC50 β2 Trypsin-like (R)
T2 construct: Proteasomes were isolated from red blood cells; from tissue; host or cells: red blood cells
Procedure: as §1, §2
(§5) The effects thereof were compared with the one of the commonly used proteasomal inhibitor 3 (MG132). The chymotrypsin-like (Suc-LLVY-AMC), the trypsin-like (Bz-VGR-AMC), and the caspase-like (Z-LLE-AMC)-activities of 20S proteasomes were determined following incubation for one hour at 37° C.
as §3, §4

[3] = biological target: T3, 20S proteasome β1 caspase-like activity (LLE-MCA) (Homo sapiens, UniProt P28072+Q99436); assay: Protease assay, caspase-like activity of isolated 20S proteasomes; format: biochemical; conditions: isolated 20S proteasome; LLE-MCA 50 μM; 15 min pre-incubation; read-out: IC50 β1 Caspase-like (E)
T3 construct: Proteasomes were isolated from red blood cells; from tissue; host or cells: red blood cells
Procedure: as §1, §2, §5, §3, §4

20S proteasome = test system: T4, 20S proteasome; assay: Inhibition of the different proteasomal activities, summary statements; format: biochemical; conditions: isolated proteasomes, specific substrates
T4 construct: Proteasomes were isolated from red blood cells; from tissue; host or cells: red blood cells
Procedure: The specific inhibition of a single catalytic site is of specific interest for the development of drugs. Thus, the inhibition of the different proteasomal activities of the proteasome was analysed (see also example 6). The different cleavage-preferences of the proteasome were determined by the specific substrate for the hydrophobic (chymotrypsin-like), the trypsine-like and the caspase-like activities of isolated proteasomes.
as §2, §5

[4] = biological target: T5, proteasomal activity in HeLa-cells (Homo sapiens, UniProt P20618+P28074); assay: Intracellular inhibition of proteasomes in cultivated HeLa-cells; format: cell-based; conditions: for reduction of the specific proteasomal activity in cells: 1 μM; for membrane-permeation / stability during the incubation periods: cultivated cells
T5 construct: endogenous in cells; host or cells: HeLa
Procedure: (§6) A, HeLa-cells were cultivated were 24 hours in the presence of the inhibitor. The protein concentration was determined in accordance with the cellular lysis according to Bradford in order to normalise the proteasomal activities to the different amounts of cells. Subsequently Complete (Roche) was added to all lysates, and the proteasomal activity was determined through the hydrolysis of Suc-LLVY-AMC. B, HeLa-cells was incubated with 1 μM of compound 15 for 2, 4, 6 and 24 hours. Cells were lysed, and proteins were separated through SDS-PAGE on a 10% gel, blotted to a PVDF-membrane. The accumulation of the poly-ubiquitinylated proteins was detected in a Western blot by an anti-ubiquitine-antibody (DAKO). C, HeLa-Cells were treated with increasing concentrations of the inhibitor 15, 25, 26, 27, and 28 for 24 hours (lane 1: without inhibitor; lane 2: 10 nM; lane 3: 100 nM and lane 4: 1 μM of the given inhibitor). Cells were lysed, proteins were separated on 15% gels, and the accumulation of the poly-ubiquitinylated proteins was controlled through Western blot.
HeLa-Cells were cultivated in RPMI, supplemented with 10% FCS and penicillin/streptomycin, at 5% CO2. Inhibitors were administered from 100×-stock solutions (in DMSO) at the final concentrations as indicated, and incubated with the cells for at least 20 hours.
Cultivated cells (HeLa) were harvested lysed and with 0.1% NP40 in TEAD in the presence of the commercially available protease-inhibitor-mixture Complete (Roche). The proteasomal activity was measured in 10 μl of the lysate using Suc-LLVY-AMC as a substrate. The protein content was quantified by means of Bradford (Protein assay; BioRad).
An application on cell cultures or animals requires that the concentrations of the inhibitors are chose as low as required. The specific proteasomal activity was reduced to a value of below 50% in cells that were treated with 1 μM of the compounds 15, 22, 25, 26, or 28, respectively (FIG. 6A).

[5] = Hydrolytic stability of dichlorovinylethers; format: physicochemical; conditions: for stability at pH 11: converted into α-chloroacetates
Source text: The non-selective dichlorovinylester 1 (see FIG. 1), which readily reacts with all possible nucleophiles, such as, for example, cysteine, serine and finally also threonine, served as a further lead-structure for the syntheses of compounds according to the invention. In addition, the aim was pursued to reduce the inherent over-activation of this compound. The “removal” of the acyl group of 1 could reduce the non-specific hydrolysis through ubiquitary nucleophiles, and results in quite stable dichlorovinylethers (28). […] This dual reactivity which is provided in a cascade-like reaction, corresponds to the specific requirements for an N-terminal threonine-protease-inhibitor.

[6] = test system: poly-ubiquitinylated proteins in HeLa-cells; assay: Accumulation of poly-ubiquitinylated proteins, Western blot; format: cell-based; conditions: 1 μM for compound 15
Procedure: as §6
A specific inhibition of the proteasome lead to an accumulation of poly-ubiquitinylated proteins. Indeed, the amount of poly-ubiquitinylated proteins increased during the incubation with the inhibitors. First effects were observed after 2 hours, for compound 15 (FIG. 6B) as well as for compounds 20, 22, 25 and 28 (data not shown).
50 μg of whole-cell-lysate were separated by SDS-PAGE, and blottet onto a PVDF-membrane (Millipore). The blots were blocked by means of a 5% milk-suspension. The poly-ubiquitinylated proteins were detected by anti-ubiquitin-antibody (DAKO), and anti-rabbit, POD-labelled, as a secondary antibody (DIANOVA), and visualized through ECL.

HeLa-cells = assay: Viability of HeLa-cells, crystal violet-staining; format: cell-based; conditions: 10 μM, 20 hours
Procedure: A, The viability of HeLa-Cells that were incubated with the compounds 7-28 and MG132 (1 μM), was determined using crystal-violet-staining after 20 h.
B, The viability of HeLa-Cells is dependent from the concentration of the inhibitor. HeLa-cells were cultivated for 20 hours in the presence of increasing concentrations (10 to 10000 nM) of the compounds (7, 13, 15, 18, 20-22, 24-28) and MG 132. The survival of the cells was determined using crystal-violet-staining.
The viability of Hela-Cells in the presence of different compounds was tested in […]. The viability of HeLa-cells was tested through crystal violet-staining following the incubation with the inhibitors. The cells were washed once with PBS, fixed with 1% glutardialdehyde for 30 min, and washed again. Finally, the fixed cells were stained with 0.1% crystal violet in PBS for 30 min, and subsequently carefully washed with water, in order to remove unbound dye. The residual dye was eluted with 0.1% Triton X-100 in PBS, and determined at 550 nm.

| Compound | IC50 [1] [µM] | IC50 [3] [µM] | which proteasomal activities are inhibited (site selectivity) (20S proteasome) | further results |
| --- | --- | --- | --- | --- |
| CC(C)C[C@@H](CO)NC(=O)[C@H](CC(=O)OC(C)(C)C)NC(=O)[C@H](CC(C)C)NC(=O)OCc1ccccc1 [Compound 8] (Cbz-Leu-Asp(OtBu)-[Leu(ol)]) | > 10 | > 10 | exclusive inhibition of the trypsin-like activity; also recorded: specifically reduced the trypsine-like activity | IC50 [2]: 5.48 µM |
| CC(=O)N[C@@H](CC(C)C)C(=O)N[C@@H](CC(=O)OC(C)(C)C)C(=O)N[C@H](CO)CC(C)C [Compound 9] (Ac-Leu-Asp(OtBu)-[Leu(ol)]) | > 10 | – | – | – |
| CC(=O)N[C@@H](CC(C)C)C(=O)N[C@@H](CC(=O)OCc1ccccc1)C(=O)N[C@H](CO)CC(C)C [Compound 10] (Ac-Leu-Asp(OBn)-[Leu(ol)]) | > 10 | – | – | – |
| CC(C)C[C@@H](CO)NC(=O)[C@H](CC(=O)OCc1ccccc1)NC(=O)[C@H](CC(C)C)NC(=O)OCc1ccccc1 [Compound 11] (Cbz-Leu-Asp(OBn)-[Leu(ol)]) | > 10 | – | – | – |
| CC(C)C[C@@H](CO)NC(=O)[C@H](CC(=O)OCc1ccccc1)NC(=O)[C@H](CC(C)C)NC(=O)OC(C)(C)C [Compound 12] (Boc-Leu-Asp(OBn)-[Leu(ol)]) | > 10 | – | – | – |
| CC(C)C[C@@H](C=O)NC(=O)[C@H](CC(=O)O)NC(=O)[C@H](CC(C)C)NC(=O)OCc1ccccc1 [Compound 16] (Cbz-Leu-Asp-Leu-aldehyde) | 7.26 | > 10 | exclusive reduction of the chymotryptic activity | IC50 [2]: > 10 µM |
| CC(C)C[C@@H](C=O)NC(=O)[C@H](CC(=O)OCc1ccccc1)NC(=O)[C@H](CC(C)C)NC(=O)OCc1ccccc1 [Compound 18] (Cbz-Leu-Asp(OBn)-Leu-aldehyde) | 1.73 | 3.12 | inhibited the chymotryptic and the caspase-like sites | reduction of the specific proteasomal activity in cells ([4]; HeLa cells): very weak inhibition |
| CC(C)C[C@H](NC(=O)OCc1ccccc1)C(=O)N[C@@H](CC(C)C)C(=O)N[C@H](COC(Cl)=CCl)c1ccccc1 [Compound 19] | – | – | – | stability in acidic environment [5]: tolerate an acidic environment; stability at pH 11 [5]: hydrolysed readily |
| CC(C)C[C@@H](COC(Cl)=CCl)NC(=O)[C@H](CC(C)C)NC(=O)[C@H](CC(C)C)NC(=O)OCc1ccccc1 [Compound 20] | > 10 | > 10 | – | IC50 [2]: > 10 µM; first effects on accumulation of poly-ubiquitinylated proteins observed after [6]: 2 h; stability in acidic environment [5]: tolerate an acidic environment; stability at pH 11 [5]: hydrolysed readily |
| CC(C)CC(NC(=O)C(CC(C)C)NC(=O)C(CC(C)C)NC(=O)OCc1ccccc1)C(=O)CCl (stereo not drawn) [Compound 22] (Cbz-Leu-Leu-Leu-CH2Cl; configuration not given here) | 2.2 | – | exclusive reduction of the chymotryptic activity | reduction of the proteolytic activity in cells at 10 nM ([4]; HeLa cells, 10 nM): reduction of the proteolytic activity; membrane-permeation [4]: membrane-permeation; stability during the incubation periods [4]: sufficient stability; first effects on accumulation of poly-ubiquitinylated proteins observed after [6]: 2 h |
| CC(C)C[C@H](NC(=O)OCc1ccccc1)C(=O)N[C@@H](CC(C)C)C(=O)N[C@@H](CC(C)C)C(O)C(=O)Nc1ccccc1 (stereo partly shown) [Compound 25] | 0.981 | 4.04 | inhibited the chymotryptic and the caspase-like sites | membrane-permeation [4]: membrane-permeation; stability during the incubation periods [4]: sufficient stability; first effects on accumulation of poly-ubiquitinylated proteins observed after [6]: 2 h |
| CC(C)C[C@H](NC(=O)OCc1ccccc1)C(=O)N[C@@H](CC(C)C)C(=O)N[C@@H](CC(C)C)C(=O)C(=O)NCc1cccnc1 [Compound 27] | – | 7.97 | inhibited the chymotryptic and the caspase-like sites | reduction of the specific proteasomal activity in cells ([4]; HeLa cells): markedly reduction; rate of survival of HeLa-cells (HeLa-cells): markedly reduced |
